Reference: publication PMC10692721, “Drug discovery for heart failure targeting myosin-binding protein C” (The Journal of Biological Chemistry, 2023)
Entries after “also recorded” stand apart in the source; their conditions may differ.

Assays:
[1] = tested on: FMAL-actin/TMR-cC0-C2 interaction; assay: FLT-FRET concentration-response assay, FMAL-actin plus TMR-cC0-C2; format: binding, human; settings: unphosphorylated cC0-C2
Method in brief: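 Hits tested at eight concentrations (0.5–100 μM) and read on a high-throughput fluorescence lifetime plate reader. Hill fits applied only under certain conditions.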

[2] = tested on: bovine cardiac (left ventricular) myofibrils; assay: Cardiac myofibril ATPase assay; format: biochemical; settings: 50 μM compound
Protocol: Rabbit psoas and bovine cardiac myofibrils were prepared as described in our previous study ([17]). An enzyme-coupled, NADH-linked ATPase assay was used to measure skeletal and cardiac myofibril ATPase activity in 96-well microplates at 23 °C. Ionic strength was maintained below 0.2 M, so myofilaments remained insoluble and stable ([32]). To achieve optimal enzymatic activities, buffers for skeletal and cardiac myofibrils differed slightly ([33], [34]): skeletal in 50 mM MOPS, 100 mM KCl, 5 mM MgCl2, 1 mM EGTA, pH 7.0; cardiac in 20 mM MOPS, 35 mM NaCl, 5 mM MgCl2, 1 mM EGTA, pH 7.0. Each well in the microplate contained an assay mix of 0.84 mM phosphoenolpyruvate, 0.17 mM NADH, 10 U/vol pyruvate kinase, 20 U/vol lactate dehydrogenase. The concentration of free Ca^2+ was controlled by EGTA buffering ([35]). Myofibrils were dispensed in microplates with a multichannel pipette and were incubated with assay mix plus compound of interest for 20 min at 23 °C. The concentration of myofibrils used was 0.01 mg/ml for skeletal and 0.05 mg/ml for cardiac myofibrils. The assay was started upon the addition of ATP, at a final concentration of 2.1 mM (total volume to 200 μl), and absorbance was recorded at 340 nm in a SpectraMax Plus microplate spectrophotometer from Molecular Devices. The steady-state myofibrillar ATPase rate was measured from NADH oxidation, measured as the rate of decrease in absorption at 340 nm for 30 min, with absorption data collected every 15 s. All data and statistical analysis of steady-state kinetics were conducted with the OriginPro program. The results were fitted with the Hill equation:(6) […] is the ATPase rate and n is the Hill coefficient. ATPase activity is reported on the μmol ATP/mg protein/min scale. Average data are presented as mean ± SD. Sample means are derived from three different myofibril preps (N = 3), each done in duplicate (n = 6). The effects of compounds on ATPase activity of myofibrils were determined in the presence of 50 μM compound, across a 12-point pCa range from 4.0 (activation) to 8.0 (relaxation). The calcium sensitivity (pCa50) was determined by fitting the curves to the Hill equation. […] The normalized ATPase activity of the selected compounds can be found in Figure 6.

[3] = tested on: rabbit fast skeletal (psoas) myofibrils; assay: Skeletal myofibril ATPase assay; format: biochemical; settings: 50 μM compound
Protocol: Rabbit psoas and bovine cardiac myofibrils were prepared as described in our previous study ([17]). An enzyme-coupled, NADH-linked ATPase assay was used to measure skeletal and cardiac myofibril ATPase activity in 96-well microplates at 23 °C. Ionic strength was maintained below 0.2 M, so myofilaments remained insoluble and stable ([32]). To achieve optimal enzymatic activities, buffers for skeletal and cardiac myofibrils differed slightly ([33], [34]): skeletal in 50 mM MOPS, 100 mM KCl, 5 mM MgCl2, 1 mM EGTA, pH 7.0; cardiac in 20 mM MOPS, 35 mM NaCl, 5 mM MgCl2, 1 mM EGTA, pH 7.0. Each well in the microplate contained an assay mix of 0.84 mM phosphoenolpyruvate, 0.17 mM NADH, 10 U/vol pyruvate kinase, 20 U/vol lactate dehydrogenase. The concentration of free Ca^2+ was controlled by EGTA buffering ([35]). Myofibrils were dispensed in microplates with a multichannel pipette and were incubated with assay mix plus compound of interest for 20 min at 23 °C. The concentration of myofibrils used was 0.01 mg/ml for skeletal and 0.05 mg/ml for cardiac myofibrils. The assay was started upon the addition of ATP, at a final concentration of 2.1 mM (total volume to 200 μl), and absorbance was recorded at 340 nm in a SpectraMax Plus microplate spectrophotometer from Molecular Devices. The steady-state myofibrillar ATPase rate was measured from NADH oxidation, measured as the rate of decrease in absorption at 340 nm for 30 min, with absorption data collected every 15 s. All data and statistical analysis of steady-state kinetics were conducted with the OriginPro program. The results were fitted with the Hill equation:(6) V=V0+(Vmax/1+10^−n∗^(pCa50−pCa)) where V is the ATPase rate and n is the Hill coefficient.
ATPase activity is reported on the μmol ATP/mg protein/min scale. Average data are presented as mean ± SD. Sample means are derived from three different myofibril preps (N = 3), each done in duplicate (n = 6).
The effects of compounds on ATPase activity of myofibrils were determined in the presence of 50 μM compound, across a 12-point pCa range from 4.0 (activation) to 8.0 (relaxation). The calcium sensitivity (pCa50) was determined by fitting the curves to the Hill equation. In all experiments, a 1% DMSO-only control was included. The normalized ATPase activity of the selected compounds can be found in Figure 6.

[4] = tested on: fC1-C2 binding to Alexa Fluor 568-actin; assay: AF568-actin-MyBP-C FLT binding assay (Fig. S1); settings: Suramin 20 µM, NF023 50 µM, ATA 20 µM
[5] = tested on: TMR-MyBP-C (cC0-C2, sC1-C2S, sC1-C2L, fC1-C2); assay: Compound effects on TMR-MyBP-C lifetime (Fig. S2); format: binding; settings: Suramin 20 µM, NF023 50 µM, ATA 20 µM
Source text: For FLT-TMR experiments, the same samples were excited at 532 nm.
Compound effects on TMR-MyBP-C lifetime. […] All values are the average ± SD. n=5.

[6] = target: actin (Oryctolagus cuniculus) (UniProt P68135); assay: FLT; settings: cited from earlier work
[7] = target: actin (Oryctolagus cuniculus) (UniProt P68135); assay: FLT; settings: cited from earlier work; remark: listed apart in the source
[8] = target: actin (Oryctolagus cuniculus) (UniProt P68135); assay: cosedimentation; settings: cited from earlier work
[9] = target: actin (Oryctolagus cuniculus) (UniProt P68135); assay: cosedimentation; settings: cited from earlier work; remark: listed apart in the source

Compound | effect on FLT-FRET / binding between FMAL-actin and TMR-cC0-C2 (in words) [1] | effect on Ca^2+-sensitivity of cardiac MF ATPase (in words) [2] | effect on cardiac MF ATPase activity (in words) ([2]; pCa 8 to pCa 4) | effect on Ca^2+-sensitivity of skeletal MF ATPase (in words) [3] | effect on skeletal MF ATPase activity (in words) ([3]; pCa 8 to pCa 4) | effect on binding of fC1-C2 (2 µM) to Alexa Fluor 568-actin (1 µM) (in words) [4] | effect on FLT of TMR-MyBP-C, all MyBP-C isoforms (in words) [5] | Kd [6] [µM] | Kd [7] [µM] | Kd [8] [µM] | Kd [9] [µM]
Cc1ccc(C(=O)Nc2ccc(S(=O)(=O)O)c3cc(S(=O)(=O)O)cc(S(=O)(=O)O)c23)cc1NC(=O)c1cccc(NC(=O)Nc2cccc(C(=O)Nc3cc(C(=O)Nc4ccc(S(=O)(=O)O)c5cc(S(=O)(=O)O)cc(S(=O)(=O)O)c45)ccc3C)c2)c1 [Suramin] | eliminates binding | eliminated the Ca^2+-sensitivity | remained at levels similar to those at low Ca^2+; also recorded: strongest effect | eliminated the Ca^2+-sensitivity | showed activation at low Ca^2+; also recorded: strongest effect | decreased the binding | increased | – | – | – | –
cardiac MyBP-C C0-C2 (from UniProt Q14896) | – | – | – | – | – | – | – | 2.5 | 19 | 4.3 | 6.5
